Where “and” joins values, the source holds several entries; their conditions need not be identical. Equal values may be shown once.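 Results reflect a 48-hour exposure of cells in 96-well plates to compound at five concentrations. At the GI50, growth is halved. TGI denotes the concentration required for complete inhibition of growth.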

This is an account of results in PubChem BioAssay (NCI).

The subject of the assay is MDA-MB-468 breast. The experiment in a line: NCI anticancer screen, dose series, 48 h.
With `N#CC1c2ccccc2C=CN1C(=O)CCCl` (stereo unspecified), the GI50 is 2.1 µM and the TGI came out at 5.74 µM.
Taken in the same sequence, the figures for `CCCCCCCCCCCC[N+]1(CCCCCCCCCCCC)CCCC(C)C1` (stereo unspecified) were 0.0689 µM and 0.388 µM.
For `COc1cc2c(cc1Nc1nc(N3CCc4ccccc43)c3cc[nH]c3n1)N(C(=O)CN(C)C)CC2`, in that order: 1.3 µM and 2.83 µM.
Taken in the same sequence, the figures for `CCN(CC)CCCC(C)NCC(=O)NC(c1ccc2c(c1)OCO2)c1cc(Cl)c2cccnc2c1O` (stereo unspecified) were 1.87 µM and 4.5 µM.
With `CCCCCOc1ccc(/C=N/Nc2cc(C)nc3ccc(Cl)cc23)cc1`, the GI50 was 1.7 µM and the TGI came to 3.37 µM.
Taken in the same sequence, the figures for `CCN=c1sc2c(n1NC(=O)c1cc3ccc1CCc1ccc(cc1)CC3)C(=O)c1ccccc1C2=O` were 0.719 µM and 1.83 µM.
For `OC1(c2ccc(Cl)c(C(F)(F)F)c2)CCN(CCCC(c2ccc(F)cc2)c2ccc(F)cc2)CC1`, in that order: 0.707 µM and 1.37 µM.
Taken in the same sequence, the figures for `CCN(CC)CCCNc1ccc(C)c2sc3ccccc3c(=O)c12` were 0.365 µM and 1.27 µM.
Take `O=C1/C(=C/c2ccc(Cl)c(Cl)c2)CN(C(=O)CCN2CCC(=NO)CC2)C/C1=C\c1ccc(Cl)c(Cl)c1`: the GI50 was 0.898 µM and the TGI came out at 2.4 µM.
Taken in the same sequence, the figures for `CN(C)CCCC1(c2ccc(F)cc2)OCc2cc(-c3cccc4[nH]ccc34)ccc21` (stereo unspecified) were 1.79 µM and 3.43 µM.
Taken in the same sequence, the figures for `CCN1C(=S)N(CC)C2C1NC(=S)N2/N=C/C=C/c1ccccc1OC` (stereo unspecified) were 0.347 µM and 31.4 µM.
Taken in the same sequence, the figures for `COC(=O)OC1C(O[C@H]2C[C@H]3[C@@H]4CC=C5C[C@@H](O)CC[C@]5(C)[C@H]4CC[C@]3(C)[C@H]2[C@H](C)C(=O)CCC(C)C)OCC(O)C1OC1OCC(O)C(O)C1OC(=O)c1ccc(OC)cc1` (stereo partly specified) were 0.111 µM and 1.7 µM.
In the case of `CC(=O)O[C@H]1C(=O)[C@@]2(C)C([C@H](OC(=O)c3ccccc3)[C@]3(O)C[C@H](OC(=O)[C@H](O)[C@@H](NC(=O)c4ccccc4)c4ccccc4)C(C)=C1C3(C)C)[C@]1(OC(C)=O)CO[C@@H]1C[C@@H]2O` (stereo partly specified), the GI50 was less than 0.005 µM and the TGI stood at 0.0545 µM.
Taken in the same sequence, the figures for `CNC(=O)c1ncccc1Nc1nc(Nc2cc3c(cc2OC)CCCN3C(=O)CN(C)C)nc2[nH]ccc12` were 0.435 µM and 2.47 µM.
As for `CN[C@@H](C)C(=O)N[C@H]1CN(S(=O)(=O)c2cccc(S(=O)(=O)N3CC[C@H]4CC[C@@H](C(=O)NC(c5ccccc5)c5ccccc5)N4C(=O)[C@@H](NC(=O)[C@H](C)NC)C3)c2)CC[C@H]2CC[C@@H](C(=O)NC(c3ccccc3)c3ccccc3)N2C1=O`, the GI50 was less than 0.01 µM and the TGI amounted to 0.0819 µM.
Taken in the same sequence, the figures for `CNCc1cccc2c1OCCOCCOCCN(C)S(=O)(=O)c1ccc(cc1)-c1cnc(N)c(n1)C(=O)N2` were 2.62 µM and 14.6 µM.
Taken in the same sequence, the figures for `C[C@]12CC[C@H]3[C@@H](CCC4=CC(=O)CC[C@@]43C)[C@@H]1CC[C@@H]2c1csc(N)n1` were 1.17 µM and 18.5 µM.
For `CCNc1nc(O)c(/C=C2\C=Nc3ncccc32)s1`, in that order: 1.99 µM and 4.27 µM.
Turning to `Cc1cccc(NC(=O)c2sc3nc4c(cc3c2N)C(=O)CCC4)c1`, the GI50 is 0.0807 µM and the TGI worked out at 2.66 µM.
Taken in the same sequence, the figures for `COc1ccc2c(N)ncc(C#Cc3cc(C(=O)Nc4ccc(CN5CCN(C)CC5)c(C(F)(F)F)c4)cnc3C)c2c1` were 2.46 µM and 8.94 µM.
As for `N#CC1(c2ccc(NC(=O)c3cccnc3NCc3ccncc3)cc2)CCCC1`, the GI50 is 7.04 µM and the TGI stood at 51.8 µM.
Taken in the same sequence, the figures for `COc1cc2c(N3CCN(C(=O)Nc4ccc(OC(C)C)cc4)CC3)ncnc2cc1OCCCN1CCCCC1` were 14.1 µM and 42.9 µM.
For `Cc1ccc(O)cc1Nc1ccnc2ccc(S(C)(=O)=O)cc12`, in that order: 2.04 µM and 9.37 µM.
Taken in the same sequence, the figures for `Nc1nc2c(c3cnccc13)C(c1ccc(Cl)c(Cl)c1)Cc1cnccc1-2` (stereo unspecified) were 0.27 µM and 0.807 µM.
In the case of `CC1=C(C(=O)Nc2ccccc2)C(c2ccc(N(C)C)cc2)C(C(=O)Nc2ccccc2)=C(C)N1`, the GI50 is 43.9 µM and the TGI was greater than 100 µM.
Taken in the same sequence, the figures for `CC1(C)N=C(N)N=C(N)N1c1ccc(CCC(=O)Nc2ccc(S(=O)(=O)F)cc2)cc1` were 1.01 µM and greater than 100 µM.
In the case of `Nc1ncnc2c1N=C(c1ccc3c(c1)OCO3)CC(c1ccc(Cl)cc1)N2` (stereo unspecified), the GI50 was 10.1 µM and the TGI is 54.9 µM.
For `CCn1cc(C(=O)O)c(=O)c2cc(F)c(N3CCN(S(=O)(=O)c4cccc5ccccc45)CC3)cc21`, in that order: 2.52 µM and 7.32 µM.
Taken in the same sequence, the figures for `Cc1ccc2c(-c3ccnc(Nc4ccc5c(c4)OCCO5)n3)c(-c3ccc(C(F)(F)F)cc3)nn2n1` were 5.19 µM and greater than 25 µM.
For `Cc1c(C(=N)C(C#N)C#N)c(=N)oc2c1ccc1ccccc12`, in that order: 13.5 µM and 46 µM.
Turning to `Cc1nn(-c2ccc(Cl)cc2)c2ncnc(N/N=C/c3ccccc3O)c12`, the GI50 was 1.71 µM and 1.03 µM; the TGI is 6.46 µM and 7.68 µM.
For the compound `N#Cc1nc2c(S(=O)(=O)c3ccc(Cl)cc3)c(N)n(Nc3cccc(Cl)c3)c2nc1C#N`, the GI50 is 0.00706 µM and the TGI stood at 0.195 µM.
`Fc1cccc(Cl)c1/C=N/Nc1nc(N/N=C/c2c(F)cccc2Cl)nc(N2CCCCC2)n1`: the GI50 is 1.86 µM and the TGI amounted to 6.89 µM.
On to `CCN1C(=O)N(CC)C2SC(N/N=C/c3ccc(OC)cc3)=NC21` (stereo unspecified), for which the GI50 is 0.314 µM.
In the case of `O=C(Nc1cccc(-n2cc(-c3ccncc3)c(-c3cc(O)cc(Cl)c3)n2)c1)c1ccc(N2CCOCC2)c(C(F)(F)F)c1`, the GI50 is 3.42 µM and the TGI was determined as 43.3 µM.
In the case of `COc1ccc(OC)c(/C=C/c2nc(=S)n(-c3ccc(Cl)cc3)[nH]2)c1`, the GI50 is 3.51 µM and the TGI was found to be 55.4 µM.
For `c1ccc(-c2[nH]ncc2-c2ccnc(-c3ccc(OCCn4ccnc4)cc3)c2)nc1`, in that order: 12.2 µM and greater than 25 µM.
For `CC(=O)ON1CCCC(P(=O)(OCOC(=O)C(C)(C)C)OCOC(=O)C(C)(C)C)C1=O` (stereo unspecified), in that order: 1.01 µM and 5.92 µM.
For `O=C(/C=C/C12c3ccccc3C(c3ccccc31)C1C(=O)NC(=O)C12)c1ccccn1` (stereo unspecified), in that order: 1.71 µM and 4.03 µM.
Regarding `O=C1c2cccc(Oc3ccccc3)c2C(=O)c2cccc(Oc3ccccc3)c21`, the GI50 is greater than 100 µM and the TGI is greater than 100 µM.
For the compound `COc1ccc2c(c1)c(-c1nc(-c3c[nH]c4ncccc34)cs1)cn2CCCN1CCOCC1`, the GI50 is 2.52 µM and the TGI came out at 5.25 µM.
Taken in the same sequence, the figures for `O=C1NC(=N[C@@H](CO)c2ccccc2)S/C1=C\c1ccc2ncccc2c1` were 5.78 µM and greater than 25 µM.
For `CCN(CC)Cc1cc(Nc2nc(NC3CCC(N(C)C)CC3)c3ccccc3n2)ccc1OC` (stereo unspecified), in that order: 1.64 µM and 3.16 µM.
For `COc1ccc(OC)c(NCC(=O)n2nc(/C=C\c3ccc(O)c(OC)c3)cc2/C=C\c2ccc(O)c(OC)c2)c1`, in that order: 2.85 µM and 23.3 µM.
Consider `CC(C)(CO)CNC(=O)c1ccc2[nH]c(O)c(N=Nc3ccc(S(N)(=O)=O)cc3)c2c1`, for which the GI50 is greater than 17.9 µM and the TGI was greater than 25 µM.
Taken in the same sequence, the figures for `FC(F)(F)Oc1cccc(-c2cc(NCCCCCCNc3cc(-c4cccc(OC(F)(F)F)c4)nc4ccc(N5CCCC5)cc34)c3cc(N4CCCC4)ccc3n2)c1` were 1.59 µM and 3.21 µM.
Taken in the same sequence, the figures for `Cn1nccc1Nc1nccc(-c2ccn([C@H](CO)c3ccc(Cl)c(F)c3)c(=O)c2)n1` were 18.8 µM and 57.9 µM.
For `O=C(OCc1ccc2c(Br)cc(Br)c(O)c2n1)c1cc2ccccc2[nH]1`, in that order: 0.419 µM and 1.54 µM.
As for `O=C1C=C[C@H](O)[C@@]2(CO)O[C@@H]12`, the GI50 is 4.61 µM and the TGI was 20 µM.
Taken in the same sequence, the figures for `Cn1c([N+](=O)[O-])cnc1C=C1C(=O)c2ccccc2C1=O` were 7.35 µM and 33.1 µM.
For `COc1ccc2sc3c(NCCCN)nc4ccccc4c3c(=O)c2c1`, in that order: 1.56 µM and 3.19 µM.
